In patent US20220193240A1, “TRIGGERABLE HYDROGEL COMPOSITIONS AND RELATED METHODS” (Massachusetts Institute of Technology, priority 2016, published 2022):

Key:
[1] = pH 7.4
Description: Permeability measurement. The measurement of permeability of TTHs was carried out on a Franz diffusion cell using a TTH membrane (thickness, 3 mm). […] At each time point, 0.4 mL was sampled from the acceptor compartment and 0.4 mL fresh PBS was supplemented through the sampling port of the cell.

[2] = In vivo pharmacokinetics of lumefantrine with model fit; parameters: species or system Yorkshire pig
Description: In vivo studies. All animal experiments were performed in accordance with protocols approved by the Committee on Animal Care at MIT. A large animal model, 45-55 kg Yorkshire pigs, was chosen as its gastric anatomy similar to humans and is widely used in evaluating devices in the GI space. Pigs were sedated with Telazol (tiletamine/zolazepam) 5 mg kg−1, xylazine 2 mg kg−1, and atropine 0.05 mg kg−1, and/or isoflurane (1˜3% inhaled), and an endoscopic overtube (US Endoscopy) was placed in the esophagus under endoscopic visual guidance during esophageal intubation. To evaluate the TTH for its ability to be triggered to dissolve into solution with biocompatible agents, the retrievable TTH strips and methyl blue-labeled large TTH sheets were administered via the overtube into the stomach. PBS (0.5 L) containing EDTA (40 mM), GSH (20 mM), and NaHCO3 (60 mM) was administered via the overtube after the gastric placement of the TTH samples. Intra-gastric endoscopy videography was used for image capture of the dissolution of the TTH sheets. The TTH strips were retrieved endoscopically after 1 h in the gastric cavity. Pigs that were not administered EDTA/GSH and therefore the strips and sheets were only exposed to gastric fluid were used as control experiments. To assess TTHs for the ability to achieve gastric retention, radiopaque barium sulfate-labeled capsule-like TTHs were administered via the overtube into the gastric cavity (one TTH device per pig). Radiographs were performed every 48-72 h to monitor the integrity and transit of the devices as well as any radiographic evidence of bowel obstruction or perforation. […] During the evaluation of the TTH systems for gastric residence and drug delivery the animals were monitored twice daily for any signs of abnormal feeding and stooling patterns. Additionally the animals were monitored clinically for any evidence of gastrointestinal obstruction as well as radiographically every 48-72 hours for evidence of obstruction and/or perforation. […]

Compound	permeability through the TTH [1] [mL h·cm−2]	clearance from blood ([2]; after a single administration)	absorption rate constant ([2]; first order model fit) [day⁻¹]	elimination rate constant ([2]; free drug, model fit, estimated) [day⁻¹]
C[S+](C)[O-] [dimethyl sulfoxide]	0.082			
CCCCN(CCCC)CC(O)c1cc(Cl)cc2c1-c1ccc(Cl)cc1/C2=C/c1ccc(Cl)cc1 (stereo not shown) [free lumefantrine, lumefantrine]		rapidly cleared from blood	1.17	1.17
